For 29 compounds, IC50 results are on record in patent US20260174769A1, “MACROCYCLIC COMPOUNDS AND METHODS OF USE” (AMGEN INC., priority 2022, published 2026).

Test [1] addresses His-tagged KRAS G12D protein (Homo sapiens, UniProt P01116, G12D). Put plainly: KRAS G12D TR-FRET Assay. It is filed as binding. The protocol: The His-tagged KRAS G12D protein (Amgen) was diluted to 20 nM in Assay Buffer (20 mM HEPES, pH 7.4, 10 mM MgCl2, 50 mM NaCl, 0.1% BSA, 0.01% Tween-20, 10 μM GDP) and 2 μL was added to the appropriate wells of the 384-well plate. The plate was incubated for 30 minutes at room temperature. Biotinylated KRPep-2d substrate (Amgen) was diluted to 20 nM in Assay Buffer and 2 μL was added to all wells and incubated for 1 hour at room temperature. Detection Reagent (0.4 nM LANCE Eu-W1024 Anti-6×His (Perkin Elmer AD0401), 5 nM streptavidin-d2 (Cisbio 610SADLA)) was prepared in Assay Buffer, then 4 μL was added to the plate and incubated for 1 hour at room temperature.

Test [2] concerns the target GDP-bound KRAS protein (aa 1-169), containing both G12D and C118A amino acid substitutions (Homo sapiens, UniProt P01116, C118A/G12D). Nature of the test: KRAS G12D Coupled Nucleotide Exchange Assay. As to conditions: 2 hours compound pre-incubation; SOS-mediated nucleotide exchange. The format is biochemical. The protocol: KRAS G12D Coupled Nucleotide Exchange Assay
The assay plates were then read on a PerkinElmer En Vision Multilabel Reader, using AlphaScreen® technology, and data were analyzed using a 4-parameter logistic model to calculate IC50 values.

Test [3] relates to Phosphorylation of ERK1/2 in AsPC-1 cells. Nature of the test: Phospho-ERK1/2 MSD Assay. The format is cell-based, human. To be noted: AsPC-1 cells, 2 h compound treatment, read-out: 2 h p-ERK (AsPC-1 cells), IC50. The protocol:
Sixteen hours prior to compound treatment, AsPC-1 cells were seeded in 96-well cell culture plates at a density of 25,000 cells/well and incubated at 37° C., 5% CO2. A compound dose-response titration was diluted in growth media, added to appropriate wells of a cell culture plate, and then incubated at 37° C., 5% CO2 for 2 hours. […] Phosphorylation of ERK1/2 in compound-treated lysates was assayed using Phospho-ERK 1/2 Whole Cell Lysate kits (Meso Scale Discovery K151DWD) according to the manufacturer's protocol. Assay plates were read on a Meso Scale Discovery Sector Imager 6000, and data were analyzed using a 4-parameter logistic model to calculate IC50 values.

Setting [4] is: TR-FRET, read-out: KRAS G12D Binding IC50.

Where two headings read alike, the source gives them in different places.

Chain of GDP-bound KRAS protein (aa 1-169), containing both G12D and C118A amino acid substitutions (P01116 1-169 isoform P01116-2 G12D/C118A): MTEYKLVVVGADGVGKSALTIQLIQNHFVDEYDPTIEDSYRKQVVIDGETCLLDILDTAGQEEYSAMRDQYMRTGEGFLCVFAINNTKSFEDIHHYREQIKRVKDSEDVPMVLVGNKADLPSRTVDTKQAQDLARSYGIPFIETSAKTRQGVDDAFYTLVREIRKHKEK
Chain of His-tagged KRAS G12D protein (P01116 1-188 isoform P01116-2 G12D): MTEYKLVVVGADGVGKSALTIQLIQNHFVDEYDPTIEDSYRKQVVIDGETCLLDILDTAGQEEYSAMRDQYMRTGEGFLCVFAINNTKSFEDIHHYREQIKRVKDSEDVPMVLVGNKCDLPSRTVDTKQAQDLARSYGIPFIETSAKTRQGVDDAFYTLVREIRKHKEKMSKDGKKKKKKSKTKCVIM

In general, IC50 refers to the concentration needed to halve the response being measured. On to `Cc1cc2[nH]ncc2c2c1CCCCCCC1(O)CCCN(C1)c1nc(OC[C@@]34CCCN3C[C@H](F)C4)nc3c(F)c-2ncc13` (mixture of isomers) [Example 44], for which the half-maximal inhibitory concentration (IC50) in test [1] (TR-FRET binding) was determined as 160 nM; in test [2] it was 266 nM.

Regarding `O=C1N[C@@H]2C[C@H](O)CN(C2)c2nc(OC[C@@]34CCCN3C[C@H](F)C4)nc3c(F)c(ncc23)-c2c(c(Cl)cc3[nH]ncc23)CCCO1` (single isomer, unassigned) [Example 284], the IC50 in test [1] (TR-FRET binding) amounted to 5 nM; in test [2] it was 2 nM.

Regarding `CN1C(=O)OCCCc2c(Cl)cc3[nH]ncc3c2-c2ncc3c(nc(OC[C@@]45CCCN4C[C@H](F)C5)nc3c2F)N2C[C@H](O)C[C@H]1C2` (single isomer, unassigned) [Example 287], the figures for the IC50 in test [1] (TR-FRET binding) and in test [2] were 1230 nM and 376 nM, respectively.

Take `O=C1OCCc2c(Cl)cc3[nH]ncc3c2-c2ncc3c(nc(OC[C@@]45CCCN4C[C@H](F)C5)nc3c2F)N2CCC[C@@]3(C[C@H](CO3)O1)C2` (single isomer, unassigned) [Example 314]: the IC50 in test [1] (TR-FRET binding) was found to be 21 nM; in test [2], 11 nM.

In the case of `O=C1OCCc2c(Cl)cc3[nH]ncc3c2-c2ncc3c(nc(OC[C@@]45CCCN4C[C@H](F)C5)nc3c2F)N2CCC[C@]3(C[C@@H](CO3)O1)C2` (single isomer, unassigned) [Example 315], the IC50 was 3 nM in test [1] (TR-FRET binding) and 2 nM in test [2].

On to `CN1CCC[C@H]1COc1nc2c3cnc(c(F)c3n1)-c1c(c(Cl)cc3[nH]ncc13)CCCOC(=O)O[C@]1(CF)COCCN2C1` (single isomer, unassigned) [Example 338], for which the IC50 in test [1] (TR-FRET binding) was 7 nM.

As for `O=C1OCCCc2c(Cl)cc3[nH]ncc3c2-c2ncc3c(nc(OC[C@@]45CCCN4C[C@H](F)C5)nc3c2F)N2CCCC[C@](CF)(C2)O1` (single isomer, unassigned) [Example 340], the IC50 in test [1] (TR-FRET binding) is 4 nM.

Turning to `[2H]C([2H])([2H])[C@]12COCCN(C1)c1nc(OC[C@@]34CCCN3C[C@H](F)C4)nc3c(F)c(ncc13)-c1c(c(C)cc3[nH]ncc13)CCCOC(=O)O2` (single isomer, unassigned) [Example 351], in test [1] (TR-FRET binding), the IC50 came out at 464 nM.

The compound `[2H]C([2H])([2H])[C@@]12COCCN(C1)c1nc(OC[C@@]34CCCN3C[C@H](F)C4)nc3c(F)c(ncc13)-c1c(c(C)cc3[nH]ncc13)CCCOC(=O)O2` (single isomer, unassigned) [Example 352] gave an IC50 in test [1] (TR-FRET binding) of 6 nM.

`[2H]C([2H])([2H])[C@]12COCCN(C1)c1nc(OC[C@@]34CCCN3C[C@H](F)C4)nc3c(F)c(ncc13)-c1c(c(Cl)cc3[nH]ncc13)CCCOC(=O)O2` (single isomer, unassigned) [Example 354] displayed a 50% inhibitory concentration (IC50) in test [1] (TR-FRET binding) of 1590 nM.

As to `CC12COCCN(C1)c1nc(OC[C@@]34CCCN3C[C@H](F)C4)nc3cc(nnc13)-c1c(c(Cl)cc3[nH]ncc13)CCCOC(=O)O2` (single isomer, unassigned) [Example 362], the values for the IC50 in test [1] (TR-FRET binding) and in test [2] were 8 nM and 5 nM, respectively.

For the compound `C[C@@]12COCCN(C1)c1nc(OC[C@@]34CCCN3C[C@H](F)C4)nc3c(F)c(ncc13)-c1c3c(cc4[nH]ncc14)CC[C@H]3CCOC(=O)O2` (single isomer, unassigned) [Example 365], the IC50 in test [1] (TR-FRET binding) worked out at 3 nM.

Take `C[C@@]12COCCN(C1)c1nc(OC[C@@]34CCCN3C[C@H](F)C4)nc3c(F)c(ncc13)-c1c3c(cc4[nH]ncc14)CC[C@@H]3CCOC(=O)O2` (single isomer, unassigned) [Example 366]: the IC50 in test [1] (TR-FRET binding) turned out to be 938 nM.

In test [1] (TR-FRET binding), `O=C1OCC[C@@H]2CCc3cc4[nH]ncc4c(c32)-c2ncc3c(nc(OC[C@@]45CCCN4C[C@H](F)C5)nc3c2F)N2CCOC[C@H](C2)O1` (single isomer, unassigned) [Example 367] showed a 50% inhibitory concentration (IC50) of 4 nM.

Take `Fc1c2ncc3c(nc(OC[C@@]45CCCN4C[C@H](F)C5)nc13)N1CCOC[C@H](Cc3ncc(o3)CCc3c(Cl)cc4[nH]ncc4c3-2)C1` (single isomer, unassigned) [Example 375]: the IC50 in test [1] (setting [4]) was 27 nM.

With `Fc1c2ncc3c(nc(OC[C@@]45CCCN4C[C@H](F)C5)nc13)N1CCOC[C@@H](Cc3ncc(o3)CCc3c(Cl)cc4[nH]ncc4c3-2)C1` (single isomer, unassigned) [Example 376], the IC50 in test [1] (setting [4]) was found to be 16 nM.

For the compound `Fc1c2ncc3c(nc(OC[C@@]45CCCN4C[C@H](F)C5)nc13)N1CCC[C@@H](C1)c1cnc(o1)CCCc1c(Cl)cc3[nH]ncc3c1-2` (single isomer, unassigned) [Example 386], in test [1] (setting [4]), the IC50 amounted to 3730 nM.

For `Fc1c2ncc3c(nc(OC[C@@]45CCCN4C[C@H](F)C5)nc13)N1CCO[C@@H](C1)c1coc(n1)CCCc1c(Cl)cc3[nH]ncc3c1-2` (single isomer, unassigned) [Example 389], the IC50 in test [1] (setting [4]) amounted to 3960 nM.

As to `Fc1c2ncc3c(nc(OC[C@@]45CCCN4C[C@H](F)C5)nc13)N1CCO[C@H](C1)c1coc(n1)CCCc1c(Cl)cc3[nH]ncc3c1-2` (single isomer, unassigned) [Example 390], the IC50 in test [1] (setting [4]) is 5 nM.

As for `Fc1c2ncc3c(nc(OC[C@@]45CCCN4C[C@H](F)C5)nc13)N1CCO[C@@H](COCC[C@@H]3C[C@@H]3c3c(Cl)cc4[nH]ncc4c3-2)C1` (single isomer, unassigned) [Example 392], the IC50 in test [1] (setting [4]) was determined as 6 nM.

Regarding `Fc1c2ncc3c(nc(OC[C@@]45CCCN4C[C@H](F)C5)nc13)N1CCO[C@@H](COCC[C@H]3C[C@H]3c3c(Cl)cc4[nH]ncc4c3-2)C1` (single isomer, unassigned) [Example 393], the IC50 in test [1] (setting [4]) is 1810 nM.

Regarding `Fc1c2ncc3c(nc(OC[C@@]45CCCN4C[C@H](F)C5)nc13)N1CCCC[C@](F)(COCCCCc3c(Cl)cc4[nH]ncc4c3-2)C1` (single isomer, unassigned) [Example 398], the IC50 in test [1] (setting [4]) worked out at 4 nM.

In the case of `Fc1c2ncc3c(nc(OC[C@@]45CCCN4C[C@H](F)C5)nc13)N1CCCC[C@@](F)(COCCCCc3c(Cl)cc4[nH]ncc4c3-2)C1` (single isomer, unassigned) [Example 399], the IC50 in test [1] (setting [4]) stood at 4 nM.

With `O=C1CCCCc2c(Cl)cc3[nH]ncc3c2-c2ncc3c(nc(OC[C@@]45CCCN4C[C@H](F)C5)nc3c2F)N2CC[C@@H]3[C@H](C2)N1CC3(F)F` (single isomer, unassigned) [Example 403], the IC50 in test [1] (setting [4]) came out at 3 nM.

For the compound `O[C@@H]1C[C@@H]2COCCCCc3c(Cl)cc4[nH]ncc4c3-c3ncc4c(nc(OC[C@@]56CCCN5C[C@H](F)C6)nc4c3F)N(C1)C2` (single isomer, unassigned) [Example 406], the IC50 in test [1] (setting [4]) was found to be 21 nM.

Turning to `O[C@H]1C[C@H]2COCCCCc3c(Cl)cc4[nH]ncc4c3-c3ncc4c(nc(OC[C@@]56CCCN5C[C@H](F)C6)nc4c3F)N(C1)C2` (single isomer, unassigned) [Example 407], the IC50 in test [1] (setting [4]) came to 6 nM.

As to `Cc1cc2[nH]ncc2c2c1CCCn1ncc(n1)C1CCCN(C1)c1nc(OC[C@@]34CCCN3C[C@H](F)C4)nc3c(F)c-2ncc13` (stereo partly drawn) [Example 158, 31-Fluoro-25-(((2R,7aS)-2-fluorotetrahydro-1H-pyrrolo[1,2-a]pyrrol-7a(5H)-yl)methoxy)-9-methyl-5,6,14,15,22,24,26,30,33-nonaazaheptacyclo[25.3.1.1˜14,17˜.1˜18,22˜.0˜2,10˜.0˜3,7˜.0˜23,28˜]tritriaconta-1(31),2,4,7,9,15,17(33),23,25,27,29-undecaene], the IC50 in test [3] (Homo sapiens, ASPC1, 2 h) stood at 278 nM.

On to `CN(C)CC1(COc2nc3c4cnc(c(F)c4n2)-c2c(c(Cl)cc4[nH]ncc24)CCOC(=O)O[C@H]2C[C@]4(CCCN3C4)C2)CC1` [Example 334, (1S,3R)-10-chloro-24-((1-((dimethylamino)methyl)cyclopropyl)methoxy)-32-fluoro-4,6-dioxa-13,14,19,23,25,27-hexaazaheptacyclo[25.3.1.1~1,3~.1~18,22~.0~9,17~.0~12,16~.0~21,26~]tritriaconta-9,11,14,16,18(32),19,21,23,25-nonaen-5-one], for which the IC50 in test [3] (Homo sapiens, ASPC1, 2 h) was 8 nM; in test [1] (TR-FRET binding) it was 2 nM.

With `O=C1OCCCc2c(Cl)cc3[nH]ncc3c2-c2ncc3c(nc(OC[C@@]45CCCN4C[C@H](F)C5)nc3c2F)N2CCCC[C@@](CF)(C2)O1` [Example 339, (26S)-18-chloro-32-fluoro-26-(fluoromethyl)-4-(((2R,7aS)-2-fluorotetrahyrdo-1H-pyrrolo[1,2-a]pyrrol-7a(5H)-yl)methoxy)-23,25-dioxa-1,3,5,9,14,15-hexaazahexacyclo[24.4.1.1~6,10~.0~2,7~.0~11,19~.0~12,16~]dotriaconta-2,4,6,8,10(32),11,13,16,18-nonaen-24-one], in test [3], the concentration for half-maximal inhibition (IC50) came out at 826 nM.
